Assay results published in BigSolDB 2.1.

Cc1ccc(S(=O)(=O)[N-]Cl)cc1.[Na+]
solubility (mole fraction)
Details	in ethanol	in n-propanol	in sec-butanol	in water
278 K	0.02	0.00503	0.00101	0.00684
283 K	0.0221	0.00636	0.00135	0.008
288 K	0.0244	0.00776	0.00201	0.00955
293 K	0.0268	0.00932	0.00322	0.0114
298 K	0.0299	0.0109	–	0.0138
298.4 K	–	–	0.00464	–
303.1 K	–	0.013	–	0.0171
303.2 K	0.034	–	0.00595	–
308 K	0.0388	–	0.00723	–
308.2 K	–	0.0156	–	0.0218
313 K	0.0441	0.0191	0.00881	0.0284
318 K	0.0499	0.0235	0.0114	0.037
323 K	0.0564	0.0291	0.0141	0.0477

O=S(=O)([N-]Cl)c1ccccc1.[Na+]
solubility (mole fraction)
Details	in ethanol	in n-propanol	in sec-butanol	in water
278 K	0.0164	0.00195	0.00185	0.0074
283 K	0.0193	0.00348	0.00228	0.00829
288 K	0.0224	0.00536	0.00287	0.0102
293 K	0.0264	0.00778	0.00383	0.0127
298 K	0.031	0.0106	–	0.0158
298.4 K	–	–	0.00481	–
303.1 K	–	0.0142	–	0.0192
303.2 K	0.0364	–	0.00585	–
308 K	0.0422	–	0.00706	–
308.2 K	–	0.0188	–	0.0241
313 K	0.0486	0.0245	0.0091	0.0316
318 K	0.0561	0.0307	0.0117	0.0421
323 K	0.066	0.0378	0.015	0.0554
